Experimental data from paper PMC10474815 (Science (New York, N.Y.), 2023).
pKd: −log10 of the molar value.

Experiments:
CYPA = CYPA (Homo sapiens, UniProt P62937); assay: Reversible binary complex formation with CYPA; format: binding
GDP-loaded KRAS^G12C = GDP-loaded KRAS^G12C (Homo sapiens, UniProt P01116+P62937, G12C); assay: Native PAGE tri-complex formation with GDP-loaded KRAS G12C; format: binding; conditions: KRAS G12C 2 μM, compound 10 μM, CYPA 2 μM
KRAS^G12C = KRAS^G12C (Homo sapiens, UniProt P01116+P62937, G12C); assay: Kinetic target engagement assay; format: biochemical; conditions: active KRAS G12C in the presence of CYPA
[1] = molecular target: T1, CYPA:RMC-4998:KRAS^G12C tri-complex (Homo sapiens, UniProt P01116+P62937, G12C); assay: Tri-complex stability after compound washout, biophysical assays; format: binding
[2] = molecular target: T1, CYPA:RMC-4998:KRAS^G12C tri-complex; assay: Tri-complex stability after compound washout, cellular experiments; format: cell-based
KRAS^G13C = KRAS^G13C (Homo sapiens, UniProt P01116, G13C); assay: Activity on RAS variants
KRAS^G12C mutant cells = assay: Cancer cell line panel viability, 3D CellTiter-Glo; format: cell-based; conditions: n = 17 G12C, n = 11 non-G12C cell lines
[3] = molecular target: KRAS^G12C in MIA PaCa-2 cells (Homo sapiens, UniProt P01116+P62937, G12C); assay: Covalent modification of KRAS G12C in cells; format: cell-based
[4] = tested on: KRAS^G12C mutant CRC PDX models; assay: Patient-derived xenograft panel, CRC; format: in vivo; conditions: 200 mg/kg orally once daily, 28-day treatment; 6/15 models
[5] = tested on: KRAS^G12C mutant NSCLC PDX models; assay: Patient-derived xenograft panel, NSCLC; format: in vivo; conditions: 200 mg/kg orally once daily, 28-day treatment; 19/25 models

| koff of binary complex with CYPA (CYPA) | pKd (CYPA; read-out: Kd of binary complex with CYPA) | Complex formation with GDP-loaded KRAS G12C (GDP-loaded KRAS^G12C) | Covalent engagement efficiency kinact/KI (KRAS^G12C) | Tri-complex half-life after compound washout [1] | Tri-complex half-life after compound washout [2] | Activity on KRAS G13C (KRAS^G13C) | Time to complete covalent modification of KRAS G12C [3] | Structure (SMILES) | Selectivity index (G12C versus non-G12C mutant models) (KRAS^G12C mutant cells) | Tolerability (NCI-H358 xenografts; mouse, in vivo, po) | Tumor response (NCI-H358 xenografts; oral once daily, 28 days) | Duration of KRAS G12C engagement and inhibition of ERK phosphorylation in tumors (NCI-H358 xenografts; single dose) | Models with mean tumor regression [4] | Models with mean tumor regression [5] | Effect of CYPA loss on cellular activity (CYPA-null H358 cells) |
| --- | --- | --- | --- | --- | --- | --- | --- | --- | --- | --- | --- | --- | --- | --- | --- |
| 1.0 s⁻¹ | 5.96 | No complex was detected | 272,000 M^−1s^−1 | greater than 8 hours | greater than 8 hours | little, if any, activity | ≤ 5 min | CCn1c(-c2cccnc2[C@H](C)OC)c2c3cc(ccc31)-c1cccc(c1)C[C@H](NC(=O)[C@H](C(C)C)N1CC[C@]3(CCN(C(=O)C#CC(C)(C)N(C)C)C3)C1=O)C(=O)N1CCC[C@H](N1)C(=O)OCC(C)(C)C2 [RMC-4998] | 1450 times | – | – | – | – | – | – |
| – | – | – | – | – | – | – | – | CCn1c(-c2cccnc2[C@H](C)OC)c2c3cc(ccc31)N1CCO[C@@H](C[C@H](NC(=O)[C@H](C(C)C)N(C)C(=O)C3(F)CCN(C(=O)C#CC(C)(C)N(C)C)CC3)C(=O)N3CCC[C@H](N3)C(=O)OCC(C)(C)C2)C1 [RMC-6291] | 13,500 times | well tolerated | near complete tumor regression | ~ 24 hours | 40% | 76% | – |
| – | – | – | – | – | – | – | – | C=C(F)C(=O)N1CCN(c2nc(OC[C@@H]3CCCN3C)nc3c2CCN(c2cccc4cccc(Cl)c24)C3)C[C@@H]1CC#N [adagrasib] | – | – | – | – | – | – | no effect |
